# pIC50: −log10 of the molar value. Activity calls are given as the source filed them. The rule behind the calls is not given here.
# Legend:
# NCI-H187 = assay: Cytotoxicity against human NCI-H187 cells; assay type: functional, cell-based
# KB = assay: Cytotoxicity against human KB cells; assay type: functional, cell-based
# [1] = biological target: T1, Prostaglandin G/H synthase 2 (Mus musculus) (UniProt Q05769); assay: (§1) Inhibition of COX2 in mouse lung fibroblast assessed as PGE2 production by radioimmunoassay
# T1 sequence (whole entry): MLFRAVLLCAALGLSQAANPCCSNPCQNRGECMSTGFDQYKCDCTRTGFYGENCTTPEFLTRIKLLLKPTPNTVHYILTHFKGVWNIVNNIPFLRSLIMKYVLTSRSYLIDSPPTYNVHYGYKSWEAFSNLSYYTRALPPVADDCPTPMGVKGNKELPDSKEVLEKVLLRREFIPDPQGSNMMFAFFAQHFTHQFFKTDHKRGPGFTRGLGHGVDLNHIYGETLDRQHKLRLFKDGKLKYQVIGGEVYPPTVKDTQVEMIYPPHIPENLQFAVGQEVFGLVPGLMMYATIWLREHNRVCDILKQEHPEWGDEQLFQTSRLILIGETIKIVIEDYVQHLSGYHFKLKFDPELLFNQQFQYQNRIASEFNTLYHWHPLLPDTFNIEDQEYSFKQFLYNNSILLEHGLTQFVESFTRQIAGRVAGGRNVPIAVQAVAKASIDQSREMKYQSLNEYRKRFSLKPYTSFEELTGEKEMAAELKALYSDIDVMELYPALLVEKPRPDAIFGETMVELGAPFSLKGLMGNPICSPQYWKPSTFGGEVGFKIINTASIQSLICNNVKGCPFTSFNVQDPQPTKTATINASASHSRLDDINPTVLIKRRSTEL
# BC = assay: (§2) Cytotoxicity against human BC cells; assay type: functional, cell-based
# [2] = test system: Radical scavenging activity; assay: Antioxidant activity assessed as DPPH radical scavenging activity by DPPH stable radical assay
# Vero = assay: Cytotoxicity against african green monkey Vero cells; assay type: cell-based; conditions: Chlorocebus sabaeus
# [3] = as §2; assay type: functional, cell-based
# [4] = biological target: T2, Prostaglandin G/H synthase 2 (Mus musculus, UniProt Q05769); assay: as §1
# T2 sequence (Q05769 whole entry): T1 sequence (whole entry)
Structure (SMILES),Activity (NCI-H187),Activity (KB),Activity [1],Activity (BC),pIC50 [2],IC50 (NCI-H187),IC50 (Vero),IC50 (KB),IC50 [3],pIC50 [4]
CC(C)=CCCC1(C)C=Cc2c([C@@H]3CC(=O)c4c(cc(O)c(CC=C(C)C)c4O)O3)ccc(O)c2O1 (some centres undefined),inactive,inactive,inactive,inactive,–,–,–,–,–,–
CC(C)=CCC/C(C)=C/Cc1c([C@@H]2CC(=O)c3c(cc(O)c(CC=C(C)C)c3O)O2)ccc(O)c1O [NYMPHAEOL C],inactive,inactive,inactive,inactive,4.82,–,–,–,–,–
Cc1cc(C(C)(C)C)c(O)c(C(C)(C)C)c1 [BUTYLATED HYDROXYTOLUENE],–,–,–,–,4.52,–,–,–,–,–
C=C(C)C(O)Cc1c(O)cc2c(c1O)C(=O)C[C@@H](c1ccc(O)c(O)c1C/C=C(\C)CCC=C(C)C)O2 (some centres undefined) [TANARIFLAVANONE C],inactive,inactive,inactive,inactive,4.48,–,–,–,–,–
CC(C)=CCC/C(C)=C/Cc1c(O)cc2c(c1O)C(=O)C[C@@H](c1ccc(O)c(O)c1)O2 [NYMPHAEOL A],–,–,–,–,4.85,1.5 µg/mL,3.8 µg/mL,4.6 µg/mL,2.7 µg/mL,–
CC(C)=CCC/C(C)=C/Cc1c([C@@H]2CC(=O)c3c(O)cc(O)cc3O2)ccc(O)c1O [NYMPHAEOL B],inactive,inactive,–,inactive,4.89,–,–,–,–,5.06
COc1cc(O)c2c(c1)O[C@H](c1ccc(OC)c(O)c1C/C=C(\C)CCC=C(C)C)CC2=O,inactive,inactive,inactive,inactive,–,–,–,–,–,–
C=C(C)C(O)CC/C(C)=C/Cc1c(O)cc2c(c1O)C(=O)C[C@@H](c1ccc(O)c(O)c1)O2 (some centres undefined) [TANARIFLAVANONE D],inactive,–,–,–,4.70,–,19.5 µg/mL,–,6.5 µg/mL,–
CC1=CC(=O)CC(C)(C)[C@@]1(O)CC[C@@H](C)O,inactive,inactive,inactive,inactive,–,–,–,–,–,–
CC1=CC(=O)CC(C)(C)[C@@]1(O)/C=C/[C@@H](C)O,inactive,inactive,inactive,inactive,–,–,–,–,–,–
COc1ccc([C@@H]2CC(=O)c3c(cc(OC)c(CC=C(C)C)c3O)O2)c(C/C=C(\C)CCC=C(C)C)c1O,inactive,inactive,inactive,inactive,3.38,–,–,–,–,–
COc1cc(O)c2c(c1)O[C@H](c1ccc(OC)c(OC)c1C/C=C(\C)CCC=C(C)C)CC2=O,inactive,inactive,inactive,inactive,–,–,–,–,–,–
COc1ccc([C@@H]2CC(=O)c3c(cc(OC)c(C/C=C(\C)CCC=C(C)C)c3O)O2)cc1OC,inactive,inactive,inactive,inactive,–,–,–,–,–,–
COc1cc2c(c(O)c1CC=C(C)C)C(=O)C[C@@H](c1ccc(OC)c(OC)c1C/C=C(\C)CCC=C(C)C)O2,inactive,inactive,inactive,inactive,3.22,–,–,–,–,–

# From ChEMBL document CHEMBL1158792, “Constituents of the leaves of Macaranga tanarius” (J Nat Prod, 2005)
